This is an account of results in ChEMBL document CHEMBL1201862, “PubChem BioAssay data set” (2004).

Test systems include KM12; SK-MEL-28; SF-295; OVCAR-5; HL-60; HCT-116; Hs-578T; SNB-75; A498; OVCAR-3; SF-268; UO-31; HOP-62; T47D; OVCAR-8; MDA-N; HOP-92; OVCAR-4; M14.
Common to all, as to assay: NCI-60 cell line screen, 48 h

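Test compounds were applied to cells in 96-well plates for 48 hours at 5 doses. Here, GI50 denotes the concentration required for 50% inhibition of growth.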 Activity calls are given as the source filed them. Rule as the data show it: active = GI50 up to about 1.1 µM and inactive = higher.

As for `N#Cc1c(N)nc(S)c(C#N)c1-c1ccccc1`, the GI50 in the experiment on KM12, in the experiment with SK-MEL-28, in the experiment on SF-295, in the experiment on OVCAR-5, with HL-60 and in the experiment with HCT-116 was > 100 µM (inactive) in each case. For the same compound, the GI50 was > 100 µM (inactive) in the experiment with Hs-578T; 58.3 µM (inactive) in the experiment on SNB-75; > 100 µM (inactive) with A498; > 100 µM (inactive) in the experiment with OVCAR-3; > 100 µM (inactive) in the experiment on SF-268; 52.8 µM (inactive) with UO-31. Besides, the GI50 in the experiment with HOP-62, in the experiment with T47D, with OVCAR-8 and in the experiment on MDA-N was > 100 µM (inactive) each time.
Take `O=C(Nc1cccc2cnccc12)c1cc2c(cc1Cl)Sc1nccn1S2(=O)=O`: the GI50 in the experiment with KM12 was 4.66 µM (inactive); in the experiment on SK-MEL-28, 17.6 µM (inactive); in the experiment on SF-295, 15.4 µM (inactive); with OVCAR-5 it was 25.2 µM (inactive); with HL-60, 4.62 µM (inactive); with HCT-116 it was 4.74 µM (inactive). Moreover, the GI50 with Hs-578T is 20.1 µM (inactive); with SNB-75, 15.5 µM (inactive); with OVCAR-3, 19.9 µM (inactive); in the experiment with HOP-92 it was 21.4 µM (inactive); with OVCAR-4, 15.2 µM (inactive); with SF-268, 16.2 µM (inactive). The GI50 in the experiment on UO-31 was 18.6 µM (inactive); with HOP-62 it was 14 µM (inactive); in the experiment on M14 it was > 100 µM (inactive); with T47D, 6 µM (inactive); in the experiment on OVCAR-8 it was 10.3 µM (inactive); with MDA-N, 7.01 µM (inactive).
`Cc1ccc(S(=O)(=O)NNC(=O)Nc2ccc(Cl)cc2)cc1`: the GI50 in the experiment on KM12, in the experiment with SK-MEL-28, in the experiment with SF-295, with OVCAR-5, with HL-60 and in the experiment with HCT-116 was > 100 µM (inactive) in each case. For the same compound, the GI50 is > 100 µM (inactive) with Hs-578T; 25.5 µM (inactive) in the experiment on SNB-75; > 100 µM (inactive) in the experiment with A498; > 100 µM (inactive) in the experiment on HOP-92; 51.5 µM (inactive) in the experiment with OVCAR-4; > 100 µM (inactive) in the experiment with SF-268. In addition, the GI50 with UO-31, in the experiment with HOP-62, in the experiment with M14, with T47D, in the experiment on OVCAR-8 and with MDA-N was > 100 µM (inactive) in each case.
On to `CCOC(=O)C(NC(=O)c1ccco1)(Nc1nc2ccc(OCC)cc2s1)C(F)(F)F` (stereo not given), for which the GI50 in the experiment on KM12 was 21.8 µM (inactive); in the experiment with SK-MEL-28, 97.3 µM (inactive); in the experiment with SF-295, 43.1 µM (inactive); in the experiment on OVCAR-5, 34.1 µM (inactive); in the experiment with HL-60, > 100 µM (inactive); with HCT-116, 27.3 µM (inactive). The GI50 is 38.7 µM (inactive) in the experiment with Hs-578T; 19.8 µM (inactive) in the experiment with SNB-75; 44.9 µM (inactive) in the experiment with OVCAR-3; 15 µM (inactive) with HOP-92; 30.1 µM (inactive) with OVCAR-4; 41.2 µM (inactive) in the experiment with SF-268. Also, the GI50 was 4.22 µM (inactive) in the experiment with UO-31; 32.6 µM (inactive) with M14; 26.9 µM (inactive) in the experiment on T47D; 43.9 µM (inactive) with OVCAR-8; 21.6 µM (inactive) with MDA-N.
Regarding `COc1ccc(Cn2c3c(cc(OC(C)=O)c2=O)Cc2ccccc2-3)cc1`, the GI50 in the experiment with KM12 is 11.4 µM (inactive); with SK-MEL-28, 22.1 µM (inactive); with SF-295, 17 µM (inactive); with OVCAR-5, 18.7 µM (inactive); in the experiment with HL-60 it was 5.64 µM (inactive); in the experiment on HCT-116, 6.52 µM (inactive). Besides, the GI50 with Hs-578T was 20 µM (inactive); in the experiment on SNB-75 it was 11.7 µM (inactive); in the experiment on OVCAR-3, 10.7 µM (inactive); in the experiment on HOP-92 it was 9.98 µM (inactive); with OVCAR-4 it was 9.95 µM (inactive); in the experiment with SF-268 it was 7.82 µM (inactive). Besides, the GI50 in the experiment on UO-31 was 5.56 µM (inactive); in the experiment on HOP-62, 14.9 µM (inactive); with M14 it was 6.24 µM (inactive); in the experiment with T47D it was 14.6 µM (inactive); in the experiment on OVCAR-8, 7.64 µM (inactive); in the experiment on MDA-N it was 12.1 µM (inactive).
On to `CC(=O)c1c(-c2ccccc2)c(-c2ccc(OCCN(C)C)cc2)n2ccccc12`, for which the GI50 was 13.5 µM (inactive) in the experiment with KM12; 15.2 µM (inactive) in the experiment with SK-MEL-28; 17.2 µM (inactive) with SF-295; 47.8 µM (inactive) in the experiment with OVCAR-5; 16.3 µM (inactive) with HL-60; 13.3 µM (inactive) with HCT-116. For the same compound, the GI50 in the experiment on Hs-578T is 16.3 µM (inactive); in the experiment with SNB-75, 12.4 µM (inactive); in the experiment on A498 it was 19.2 µM (inactive); with OVCAR-3 it was 16.6 µM (inactive); in the experiment on HOP-92, 10.1 µM (inactive); with OVCAR-4, 24.8 µM (inactive). The GI50 with SF-268 is 16.8 µM (inactive); in the experiment on UO-31 it was 16.7 µM (inactive); in the experiment on M14 it was 16.7 µM (inactive); in the experiment on T47D, 16.7 µM (inactive); in the experiment on OVCAR-8, 14.9 µM (inactive); in the experiment with MDA-N it was 15.8 µM (inactive).
For `Clc1ccc(-c2ccc(-c3nnc(CCc4nnc(-c5ccc(-c6ccc(Cl)cc6)o5)o4)o3)o2)cc1`, the GI50 was > 100 µM (inactive) in the experiment on KM12; > 100 µM (inactive) in the experiment with SK-MEL-28; 31.5 µM (inactive) with SF-295; > 100 µM (inactive) in the experiment with OVCAR-5; 4.81 µM (inactive) in the experiment with HL-60; > 100 µM (inactive) in the experiment with HCT-116. Further, the GI50 in the experiment on Hs-578T is 14.8 µM (inactive); in the experiment with A498, 30.5 µM (inactive); in the experiment on OVCAR-3, > 100 µM (inactive); with HOP-92 it was > 27.5 µM (inactive); in the experiment on OVCAR-4, > 100 µM (inactive); in the experiment on SF-268, 28.6 µM (inactive). Further, the GI50 was > 100 µM (inactive) with UO-31; > 50.8 µM (inactive) with HOP-62; > 100 µM (inactive) in the experiment on M14; 75.7 µM (inactive) in the experiment with T47D; > 91 µM (inactive) with OVCAR-8; > 100 µM (inactive) with MDA-N.
Turning to `COC(=O)Cc1c(/C=C/C(C)(C)n2cnc(CCN3C(=O)CCC3=O)c2)[nH]c2ccccc12`, the GI50 in the experiment with KM12 was > 100 µM (inactive); in the experiment on SK-MEL-28 it was > 100 µM (inactive); in the experiment with SF-295 it was 81.1 µM (inactive); with OVCAR-5, > 100 µM (inactive); with HL-60 it was > 100 µM (inactive); in the experiment with HCT-116, > 100 µM (inactive). For the same compound, the GI50 was 43.7 µM (inactive) in the experiment on Hs-578T; 50.4 µM (inactive) in the experiment on SNB-75; > 100 µM (inactive) in the experiment with A498; > 100 µM (inactive) in the experiment on OVCAR-3; 53.6 µM (inactive) in the experiment on HOP-92; > 100 µM (inactive) in the experiment on OVCAR-4. The GI50 in the experiment on SF-268 was 59.6 µM (inactive); in the experiment with UO-31 it was 74.8 µM (inactive); in the experiment with M14, > 100 µM (inactive); in the experiment on T47D it was 22.3 µM (inactive); in the experiment on OVCAR-8, > 100 µM (inactive); in the experiment on MDA-N, > 100 µM (inactive).
For the compound `CC(=O)c1ccc2c3c1O[C@H]1c4[nH]c5ccccc5c4C[C@@]4(O)[C@@H](C2)N(CC2CC2)CC[C@]314`, the GI50 was 21.3 µM (inactive) in the experiment on KM12; 8.17 µM (inactive) in the experiment with SK-MEL-28; 15.6 µM (inactive) in the experiment with SF-295; 13.2 µM (inactive) with OVCAR-5; 16.1 µM (inactive) with HL-60; 15.5 µM (inactive) in the experiment with HCT-116. The GI50 with Hs-578T is 0.933 µM (active); in the experiment on A498, 0.333 µM (active); in the experiment on OVCAR-3, 11.4 µM (inactive); in the experiment on HOP-92, 14.5 µM (inactive); in the experiment with OVCAR-4 it was 20.6 µM (inactive); in the experiment with SF-268, 13.1 µM (inactive). Besides, the GI50 with UO-31 is 15.3 µM (inactive); in the experiment with HOP-62, 21 µM (inactive); with M14 it was 16.9 µM (inactive); in the experiment with T47D, 19.9 µM (inactive); in the experiment with OVCAR-8, 13.6 µM (inactive); in the experiment on MDA-N it was 17.7 µM (inactive).
With `CC(=O)O[C@H]1C(=O)[C@@]2(C)[C@H]([C@H](OC(=O)c3ccccc3)[C@@]3(O)C[C@H](O)C(C)=C1C3(C)C)[C@]1(OC(C)=O)CO[C@@H]1C[C@@H]2O`, the GI50 in the experiment with KM12 was 15.2 µM (inactive); in the experiment on SK-MEL-28, 64.9 µM (inactive); in the experiment on SF-295 it was 37.5 µM (inactive); in the experiment with OVCAR-5, 63.5 µM (inactive); in the experiment on HL-60, 61.9 µM (inactive); in the experiment on HCT-116, 30.5 µM (inactive). Further, the GI50 with Hs-578T is 19 µM (inactive); in the experiment on SNB-75, 11.2 µM (inactive); with OVCAR-3, 22.2 µM (inactive); in the experiment with HOP-92 it was > 100 µM (inactive); with OVCAR-4 it was > 100 µM (inactive); in the experiment on SF-268 it was 83.4 µM (inactive). In addition, the GI50 in the experiment with UO-31 was 82 µM (inactive); with HOP-62 it was 54 µM (inactive); in the experiment with M14 it was 28.6 µM (inactive); in the experiment with T47D it was > 100 µM (inactive); in the experiment on OVCAR-8, 31.2 µM (inactive); with MDA-N it was 4.55 µM (inactive).
As to `OCc1cccc(Nc2nc(O)c3[nH]cnc3n2)c1`, the GI50 in the experiment with KM12, in the experiment on SK-MEL-28, with SF-295, with OVCAR-5, in the experiment with HL-60 and in the experiment with HCT-116 was > 100 µM (inactive) throughout. In addition, the GI50 in the experiment on Hs-578T, in the experiment with SNB-75, with OVCAR-3, in the experiment on HOP-92, in the experiment on OVCAR-4 and in the experiment on SF-268 was > 100 µM (inactive) throughout. Also, the GI50 in the experiment on UO-31, with HOP-62, with M14, with T47D, in the experiment with OVCAR-8 and in the experiment on MDA-N was > 100 µM (inactive) throughout.
